Key:
[1] = test system: DMM mice; assay: Anterior femoral synovial membrane thickness in DMM mice; type: in vivo, mouse; conditions: daily ip week 8 to 12, versus vehicle
Method: Drug treatment studies: In twelve-week old male wild type C57BL/6 mice that received DMM surgeries, vehicle (PBS), paroxetine (5 mg/kg/day), fluoxetine (5 mg/kg/day), gallein (10 mg/kg/day) or indomethacin (2.5 mg/kg/day) were administered daily by ip injection. Drug treatment was initiated 8 weeks following DMM to determine the role of GRK2 signaling in the progression of OA. Using Safranin-O/Fast Green-stained sections, the OsteoMetrics system was used to quantify the above parameters on three sections from representative levels (50 μm apart) of the medial compartment of the joint for each sample. Live images of the center of the knee joint were collected through an Olympus microscope (10× objective) outfitted with a camera, a stylus was used to trace the regions of interest (ROIs). A blinded observer quantified uncalcified articular cartilage area, total chondrocyte number and matrix-producing chondrocyte number using the built-in area calculation algorithms and quantification functions of the OsteoMeasure® system. […] The calcified cartilage was determined with a line drawn along the tide mark, which is the naturally occurring line separating the calcified and uncalcified regions of the articular cartilage. A second line was drawn at the chondro-osseous junction where the calcified cartilage meets the subchondral bone. The uncalcified cartilage area was determined by subtracting the calcified cartilage area from the total area of cartilage. Total chondrocyte number and matrix-producing chondrocyte number were counted within the uncalcified cartilage region using count functions within the histomorphometry system. Matrix-producing chondrocytes were counted based on the region of Safranin-O staining within the extracellular matrix surrounding the articular chondrocyte, indicating anabolic signaling to maintain matrix homeostasis. Similarly, the anterior femoral synovial thickness was measured using OsteoMeasure® software. Synovial membrane thickness extending from anterior horn of the medial meniscus to the femur was determined by drawing a line from the inner insertion point on the femur towards the attachment on the meniscus. A second line was drawn from the outer insertion of the femur towards the attachment to the meniscus. The synovial thickness was calculated by dividing total synovial area by synovial perimeter.

[2] = test system: DMM mice; assay: DMM drug treatment study: OARSI scoring and histomorphometry of knee cartilage; type: in vivo, mouse
Method: Drug treatment studies: In twelve-week old male wild type C57BL/6 mice that received DMM surgeries, vehicle (PBS), paroxetine (5 mg/kg/day), fluoxetine (5 mg/kg/day), gallein (10 mg/kg/day) or indomethacin (2.5 mg/kg/day) were administered daily by ip injection. Drug treatment was initiated 8 weeks following DMM to determine the role of GRK2 signaling in the progression of OA.
Twelve-week-old male mice were administered DMM surgery to the right knee and sham surgery to the left knee as described (S. S. Glasson, Osteoarthritis. Cartilage. 15, 1061-1069 (2007)). Briefly, mice were anesthetized via intraperitoneal injection of ketamine (60 mg/kg) and xylazine (4 mg/kg), and a 5-mm-long incision was made on the medial side of the knee. Under a dissecting microscope, an incision was made along the medial side of the patellar tendon, opening the joint space. Using a #11 scalpel, the medial meniscotibial ligament (MMTL) was transected, enabling the medial meniscus to move freely. A similar skin incision was made in sham knees, but the joint structure was not disturbed. For the sham group, both right and left knees had sham surgeries. After surgery, 4-0 silk sutures were used to close the incision using an interrupted pattern. Mice were provided analgesia via intraperitoneal injection of buprenorphine (0.5 mg/kg) every 12 hours for 72 hours, and sutures were removed after 7 days. Mice were sacrificed, at the indicated time points, by anesthesia followed with whole animal perfusion using 10% NBF, knees were harvested and fixed for 7 days in 10% NBF, decalcified for 7 days in 10% w/v EDTA, embedded in paraffin, and 10-μm sections were cut and mounted for Safranin-O/Fast Green or IF staining.
Semi-quantitative histopathologic grading was performed using a derivative of the Chambers' scoring system that has been established by the OARSI histopathology initiative as the standard method for grading of mouse cartilage degeneration. Based on this system, cartilage grading was carried out using Safranin-O/Fast Green-stained midsagittal sections. Three sections from representative levels (50 μm apart) of the medial compartment of the joint were selected for each sample and, which were evaluated in a randomized, blinded manner by 3 laboratory members. The 3 scores were averaged to calculate the section score, and the sample score was then calculated by averaging the scores obtained from the three levels. Grading was performed using the following scale: 0=normal cartilage, 0.5=loss of proteoglycan stain without cartilage damage, 1=mild superficial fibrillation, 2=fibrillation and/or clefting extending below the superficial zone, 3=mild (<25%) loss of cartilage, 4=moderate (25-50%) loss of cartilage, 5=severe (50-75%) loss of uncalcified cartilage, and 6=eburnation with >75% loss of cartilage. Grading was performed by three blinded observers (F.K., M.J.Z., and E.R.S.). Observer agreement was evaluated in pairs via calculation of a weighted kappa coefficient, using Fleiss-Cohen weights, as we have described. The F.K. versus M.J.Z. coefficient was 0.92, the F.K. versus E.R.S. coefficient was 0.94, and the M.J.Z. versus E.R.S coefficient was 0.89, all indicative of strong agreement between the observers.
Using Safranin-O/Fast Green-stained sections, the OsteoMetrics system was used to quantify the above parameters on three sections from representative levels (50 μm apart) of the medial compartment of the joint for each sample. Live images of the center of the knee joint were collected through an Olympus microscope (10× objective) outfitted with a camera, a stylus was used to trace the regions of interest (ROIs). A blinded observer quantified uncalcified articular cartilage area, total chondrocyte number and matrix-producing chondrocyte number using the built-in area calculation algorithms and quantification functions of the OsteoMeasure® system. […]

[3] = test system: DMM mice; assay: Paroxetine combined with PTH in DMM mice: Micro-CT of subchondral bone; type: in vivo, mouse; conditions: daily from 8 weeks, harvest 12 weeks after surgery
[4] = test system: DMM mice; assay: DMM mice treated with PTH, paroxetine or their combination: histology and histomorphometry (Example 1); type: in vivo, mouse; conditions: treatment week 8 to 12, PTH sc 40 μg/kg/day, paroxetine ip 5 mg/kg/day
Method: Methods: Destabilization of the medial meniscus (DMM) surgery was used to simulate clinical post-traumatic OA. First, we determined the role of GRK2 inhibition in PTH1R Gas-cAMP signaling: 12 week old male mice underwent sham or DMM surgery and were treated with either vehicle or the GRK2 inhibitor “paroxetine” (ip, 5 mg/kg/day), treatment was initiated at the time of surgery and continued daily until 8 weeks. Knees were harvested and articular cartilage was obtained for ex vivo analysis of Gas activity. In ex vivo culture, cartilage explants were treated with PTH as an agonist to stimulate PTH1R-Ga-cAMP signaling. Thirty minutes following PTH stimulation, cartilage tissue was homogenized and cAMP levels were measured. Then, we determined the role of GRK2 inhibition in recovering or even potentiating PTH1R signaling in OA cartilage: 12 week old male mice underwent sham or DMM surgery, and received treatment with vehicle, PTH (sc, 40 μg/kg/day) alone, the GRK2 inhibitor “paroxetine3” (ip, 5 mg/kg/day) alone, or their combination. Treatment was initiated at week 8 following DMM surgery, where OA is in progress, and continued until week 12 where mice were sacrificed. Knees were harvested, paraffin embedded, sectioned and stained with safranin-o and fast green for histological evaluation, OARSI scoring, and histomorphometric analysis. Results are expressed as mean values+s.e.m. with an N=5-8 mice per experimental group. Statistical analyses were performed using one ANVOA with P<0.05 representing statistical significance.

[5] = molecular target: T1, GRK2 (Homo sapiens, UniProt P25098); conditions: from cited literature; cited from earlier work
T1 sequence (P25098 1-689): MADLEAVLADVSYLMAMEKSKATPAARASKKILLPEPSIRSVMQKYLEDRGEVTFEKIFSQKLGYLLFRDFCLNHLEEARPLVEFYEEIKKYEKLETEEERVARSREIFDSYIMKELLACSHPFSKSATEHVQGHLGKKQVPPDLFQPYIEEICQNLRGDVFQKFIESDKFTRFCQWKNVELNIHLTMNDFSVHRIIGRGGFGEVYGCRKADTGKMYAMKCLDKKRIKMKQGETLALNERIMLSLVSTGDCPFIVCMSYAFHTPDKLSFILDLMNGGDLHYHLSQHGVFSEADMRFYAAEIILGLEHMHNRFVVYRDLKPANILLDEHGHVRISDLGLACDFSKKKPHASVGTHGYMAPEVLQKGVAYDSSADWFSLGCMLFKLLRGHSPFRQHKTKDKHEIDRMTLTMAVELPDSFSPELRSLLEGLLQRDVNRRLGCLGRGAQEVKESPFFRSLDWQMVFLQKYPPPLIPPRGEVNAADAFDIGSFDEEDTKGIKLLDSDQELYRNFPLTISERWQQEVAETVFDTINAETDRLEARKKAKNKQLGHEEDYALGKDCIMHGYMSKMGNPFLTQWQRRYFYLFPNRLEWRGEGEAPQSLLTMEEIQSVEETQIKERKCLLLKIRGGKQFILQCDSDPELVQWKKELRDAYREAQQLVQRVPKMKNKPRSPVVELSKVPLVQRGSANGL

[6] = test system: Gas activity (cAMP content in cartilage); assay: cAMP assay in tibial articular cartilage of drug-treated DMM mice; type: in vivo, mouse; conditions: daily ip week 8 to 12
Method: Drug treatment studies: In twelve-week old male wild type C57BL/6 mice that received DMM surgeries, vehicle (PBS), paroxetine (5 mg/kg/day), fluoxetine (5 mg/kg/day), gallein (10 mg/kg/day) or indomethacin (2.5 mg/kg/day) were administered daily by ip injection. Drug treatment was initiated 8 weeks following DMM to determine the role of GRK2 signaling in the progression of OA. Short term drug treatment study: To evaluate the acute effect of drug treatments, GRK2^f/f mice received sham or DMM surgery followed by treatment with vehicle, paroxetine, gallein, fluoxetine, or indomethacin with the doses indicated above for 1 week beginning at 8 weeks post DMM. All mice were sacrificed 9 weeks post DMM, 21 weeks of age, for analysis of OA progression. Gas activity was measured by quantifying cAMP content in cartilage pooled from 3 mice. Tibial cartilage was dissected out and snap frozen in liquid Nitrogen. As positive control, tibial cartilage obtained from normal mice was treated with 0.5 mM 3-isobutyl-1-methylxanthine (IBMX) for 30 minutes, followed by 0.1 mM Forskolin for 15 minutes, then snap frozen in liquid Nitrogen. For human cartilage cAMP content, 70 mg frozen cartilage were used. Frozen cartilage was pulverized using 500 μL lysis buffer as we have previously described (H. K. Le Bleu, Anal Biochem, 518, 134-138 (2017)). cAMP content was quantified using the Cyclic AMP XP Assay kit (Cell Signaling, #4339) and following manufacturer's protocol, with 0.5 mM IBMX added to the lysis buffer to prevent phosphodiesterase mediated cAMP degradation during the extraction process. cAMP levels in different groups were normalized to that of sham mice or the vehicle treated human cartilage.

[7] = daily ip week 8 to 12, versus vehicle

| Compound | synovial membrane thickness [1] | cartilage degeneration (Safranin-O and Fast Green histology) ([2]; daily ip week 8 to 12) | chondro-protective and matrix-regenerative effects (overall) ([2]; daily ip week 8 to 12) | effect on the subchondral bone of OA mice (plate thickness, BMD, BV/TV, Tb.Th, osteophytes) [3] | chondrocyte number [4] | number of matrix-producing (anabolic) chondrocytes [4] | uncalcified cartilage area [4] | GRK2 inhibitory effect [5] | total number of chondrocytes ([2]; daily ip week 8 to 12) | uncalcified cartilage area ([2]; daily ip week 8 to 12) | OARSI score [2, 7] | number of matrix producing chondrocytes [2, 7] | cAMP levels in the articular cartilage [6] |
| --- | --- | --- | --- | --- | --- | --- | --- | --- | --- | --- | --- | --- | --- |
| COc1ccc2c(c1)c(CC(=O)O)c(C)n2C(=O)c1ccc(Cl)cc1 [indomethacin] | significantly reduced | progressive cartilage degeneration | no chondro-protective or matrix-regenerative effects | – | – | – | – | – | – | – | – | – | – |
| parathyroid hormone [PTH] | – | – | – | deleterious effects | increased | particular increase | increased | – | – | – | – | – | – |
| CNCCC(Oc1ccc(C(F)(F)F)cc1)c1ccccc1 (stereo not shown) [fluoxetine] | attenuated | progressive cartilage degeneration | lacks chondro-protective and matrix-regenerative effects | – | – | – | – | lacks any GRK2-inhibitory effects | only mild preservation | no preservation | high | low | not different from vehicle treated mice |

— patent US20230404989A1, “GRK2 INHIBITION BY PAROXETINE AMELIORATES OSTEOARTHRITIS” (THE PENN STATE RESEARCH FOUNDATION, priority 2020, published 2023)
